Assay results published in US4327097A, “Novel penicillins” (Toyama Chemical Co., Ltd., priority 1974, dated 1982).

Experiments:
Proteus morganii = test: MIC against clinical isolates; assay type: cell-based; details: Table 5-6, clinical isolate; unit assumed
Proteus mirabilis = test: MIC against clinical isolates; assay type: cell-based; details: Table 5-6, clinical isolate; unit assumed
Shigella flexneri = test: MIC against clinical isolates; assay type: cell-based; details: Table 5-5, clinical isolate; unit assumed
Description: (§1) The minimum inhibitory concentration (MIC) was determined by the plate method disclosed in "Chemotherapy" (Japan), Vol. 16, (1968), pages 98-99. The culture medium used was a Heart infusion agar (pH 7.4). The number of the cells per plate used in the inoculum was 10^4 (10^6 cells/ml).
(§2) MIC was determined in the same manner as in the preceding paragraph (1).

Shigella sonnei = test: MIC against clinical isolates; assay type: cell-based; details: Table 5-5, clinical isolate; unit assumed
Description: as §1, §2

[1] = system: β-lactamase, Pseudomonas aeruginosa GN 238; test: Resistant activity against β-lactamase, iodometric assay; assay type: biochemical; details: β-lactamase from Pseudomonas aeruginosa GN 238; Potassium Penicillin G = 100
Description: (3) Resistant activity against β-lactamase, Pseudomonas aerugionsa GN 238:
The resistant activity of each compound against β-lactamase was measured in the manner described below.
β-Lactamase was prepared from Pseudomonas aeruginosa GN 238. This microorganism was cultured in 100 ml of a medium containing 2 g of yeast extract, 10 g of polypeptone, 2 g of glucose, 7 g of disodium hydrogen phosphate, 2 g of potassium dihydrogen phosphate, 1.2 g of ammonium sulfate and 0.4 g of magnesium sulfate, per liter, in a 500-ml Erlenmeyer flask for 6 hrs. at 37° C. with shaking. The resulting cells were collected by centrifugation (5,000 r.p.m.×10 min.), washed three times with 0.1 M phosphate buffer (pH 7.0). Subsequently, the cells were subjected to sonication (20 KHz, 20 min.) and then centrifuged at 15,000 r.p.m. for 60 min. By using the supernatant of enzyme fluid, the resistance of each compound against β-lactamase was determined by the iodometric assay method. Each numeral shown in Table 7 is a relative activity value calculated by assuming as 100 the activity of the control Potassium Penicillin G.

Salmonella typhi-murium = test: MIC against clinical isolates; assay type: cell-based; details: Table 5-5, clinical isolate; unit assumed
Klebsiella pneumoniae [2] = test: MIC against clinical isolates; assay type: cell-based; details: Table 5-4, clinical isolate; unit assumed
Pseudomonas aeruginosa = test: MIC against clinical isolates; assay type: cell-based; details: unit assumed; for MIC Pseudomonas neruginosa S-1 / MIC Pseudomonas neruginosa S-2 / MIC Pseudomonas neruginosa S-3 / MIC Pseudomonas neruginosa S-4: Table 5-4, clinical isolate
Proteus vulgaris = test: MIC against clinical isolates; assay type: cell-based; details: Table 5-6, clinical isolate; unit assumed
Staphylococcus aureus = test: MIC against clinical isolates; assay type: cell-based; details: Table 5-1, clinical isolate; unit assumed
Klebsiella pneumoniae [3] = test: MIC, plate method, standard strains; assay type: cell-based; details: Table 3, standard strain; unit assumed
How it was run: (§3)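 MIC read as the lowest inhibitory concentration on Heart infusion agar plates buffered to pH 7.4, each spotted with 10^4 cells drawn from a 10^6 cells/ml suspension.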

[4] = system: Pseudomonas aeruginosa I.F.O.; test: MIC, plate method, standard strains; assay type: cell-based; details: Table 3, standard strain; unit assumed
How it was run: as §3

[5] = system: Staphylococcus aureus 209p; test: MIC, plate method, standard strains; assay type: cell-based; details: Table 3, standard strain, Heart infusion agar pH 7.4; unit assumed
How it was run: as §3

Proteus vulgaris 3027 = test: MIC, plate method, standard strains; assay type: cell-based; details: Table 3, standard strain; unit assumed
How it was run: as §3

Escherichia coli NIHJ = test: MIC, plate method, standard strains; assay type: cell-based; details: Table 3, standard strain; unit assumed
How it was run: as §3

Escherichia coli = test: MIC against clinical isolates; assay type: cell-based; details: Table 5-2, clinical isolate; unit assumed

CCCCCCN1CCN(C(=O)NC(C(=O)NC2C(=O)N3C2SC(C)(C)C3C(=O)O)c2ccccc2)C(=O)C1=O (single isomer, unassigned) [Compound 46]
6.25 µg/mL: MIC Shigella flexneri JS 11215 (Shigella flexneri) | MIC Pseudomonas aeruginosa GN 82 (Pseudomonas aeruginosa; Table 5-3, clinical isolate) | MIC Pseudomonas aeruginosa GN 163 (Pseudomonas aeruginosa; Table 5-3, clinical isolate) | MIC Pseudomonas aeruginosa GN 2987 (Pseudomonas aeruginosa; Table 5-3, clinical isolate) | MIC Staphylococcus aureus F-1 (Staphylococcus aureus) | MIC Staphylococcus aureus F-4 (Staphylococcus aureus) | MIC Staphylococcus aureus MS 8713 (Staphylococcus aureus) | MIC Pseudomonas aeruginosa I.F.C [4] | MIC Escherichia coli GN 3465 (Escherichia coli)
> 200 µg/mL: MIC Staphylococcus aureus F-5 (Staphylococcus aureus) | MIC Escherichia coli GN 3611 (Escherichia coli)
12.5 µg/mL: MIC Shigella sonnei JS 11232 (Shigella sonnei) | MIC Klebsiella pneumoniae GN 4081 (Klebsiella pneumoniae [2]) | MIC Klebsiella pneumoniae GN 4117 (Klebsiella pneumoniae [2]) | MIC Pseudomonas aeruginosa GN (Pseudomonas aeruginosa; Table 5-3, clinical isolate, strain number not given) | MIC Pseudomonas aeruginosa GN 221 (Pseudomonas aeruginosa; Table 5-3, clinical isolate) | MIC Pseudomonas aeruginosa GN 1091 (Pseudomonas aeruginosa; Table 5-3, clinical isolate) | MIC Pseudomonas aeruginosa GN 2565 (Pseudomonas aeruginosa; Table 5-3, clinical isolate)
0.2 µg/mL: MIC Staphylococcus aureus 209p [5]
1.57 µg/mL: MIC Klebsiella pneumoniae GN 3850 (Klebsiella pneumoniae [2]) | MIC Staphylococcus aureus F-2 (Staphylococcus aureus) | MIC Staphylococcus aureus MS 8588 (Staphylococcus aureus) | MIC Staphylococcus aureus MS 8684 (Staphylococcus aureus)
0.79 µg/mL: MIC Shigella flexneri JS 11839 (Shigella flexneri) | MIC Shigella sonnei JS 11755 (Shigella sonnei)
50 µg/mL: MIC Salmonella typhi-murium SL 2136 (Salmonella typhi-murium) | MIC Pseudomonas aeruginosa GN 1035 (Pseudomonas aeruginosa; Table 5-3, clinical isolate) | MIC Pseudomonas neruginosa S-1 (Pseudomonas aeruginosa) | MIC Pseudomonas neruginosa S-2 (Pseudomonas aeruginosa) | MIC Pseudomonas neruginosa S-3 (Pseudomonas aeruginosa) | MIC Pseudomonas neruginosa S-4 (Pseudomonas aeruginosa) | MIC Escherichia coli K-3 (Escherichia coli)
< 0.4 µg/mL: MIC Proteus morganii (Proteus morganii) | MIC Proteus mirabilis (Proteus mirabilis) | MIC Salmonella typhi-murium SL 858 (Salmonella typhi-murium) | MIC Proteus vulgaris (Proteus vulgaris) | MIC Staphylococcus aureus MS 8619 (Staphylococcus aureus) | MIC Escherichia coli GN 3435 (Escherichia coli) | MIC Escherichia coli K-4 (Escherichia coli)
< 0.1 µg/mL: MIC Esche--richin coil NIHJ (Escherichia coli NIHJ)
12%: Relative activity (%), resistant activity against β-lactamase [1]
0.4 µg/mL: MIC Klebsiella pneumoniae (Klebsiella pneumoniae [3]) | MIC Proteus vulgaris 3027 (Proteus vulgaris 3027)

CCCCCCCCN1CCN(C(=O)NC(C(=O)NC2C(=O)N3C2SC(C)(C)C3C(=O)O)c2ccccc2)C(=O)C1=O (single isomer, unassigned) [Compound No. 47]
1.57 µg/mL: MIC Shigella flexneri JS 11839 (Shigella flexneri) | MIC Klebsiella pneumoniae GN 917 (Klebsiella pneumoniae [2]) | MIC Staphylococcus aureus F-2 (Staphylococcus aureus) | MIC Staphylococcus aureus F-3 (Staphylococcus aureus) | MIC Escherichia coli GN 3452 (Escherichia coli) | MIC Escherichia coli GN 3481 (Escherichia coli) | MIC Escherichia coli K-1 (Escherichia coli) | MIC Escherichia coli K-2 (Escherichia coli)
100 µg/mL: MIC Escherichia coli K-3 (Escherichia coli)
6.25 µg/mL: MIC Shigella flexneri JS 11215 (Shigella flexneri) | MIC Shigella sonnei JS 11232 (Shigella sonnei) | MIC Staphylococcus aureus F-1 (Staphylococcus aureus) | MIC Staphylococcus aureus MS 8713 (Staphylococcus aureus) | MIC Pseudomonas aeruginosa I.F.C [4] | MIC Escherichia coli GN 3465 (Escherichia coli)
1%: Relative activity (%), resistant activity against β-lactamase [1]
0.79 µg/mL: MIC Shigella sonnei JS 11755 (Shigella sonnei)
< 0.4 µg/mL: MIC Proteus morganii (Proteus morganii) | MIC Proteus mirabilis (Proteus mirabilis) | MIC Salmonella typhi-murium SL 858 (Salmonella typhi-murium) | MIC Proteus vulgaris (Proteus vulgaris) | MIC Staphylococcus aureus MS 8619 (Staphylococcus aureus)
< 1.57 µg/mL: MIC Klebsiella pneumoniae (Klebsiella pneumoniae [3]) | MIC Staphylococcus aureus 209p [5] | MIC Proteus vulgaris 3027 (Proteus vulgaris 3027) | MIC Esche--richin coil NIHJ (Escherichia coli NIHJ)
3.13 µg/mL: MIC Klebsiella pneumoniae GN 3850 (Klebsiella pneumoniae [2]) | MIC Staphylococcus aureus MS 8588 (Staphylococcus aureus) | MIC Staphylococcus aureus MS 8596 (Staphylococcus aureus) | MIC Staphylococcus aureus MS 8684 (Staphylococcus aureus)
> 200 µg/mL: MIC Staphylococcus aureus F-5 (Staphylococcus aureus) | MIC Escherichia coli GN 3611 (Escherichia coli)
50 µg/mL: MIC Salmonella typhi-murium SL 2136 (Salmonella typhi-murium) | MIC Pseudomonas aeruginosa GN 376 (Pseudomonas aeruginosa; Table 5-3, clinical isolate) | MIC Pseudomonas aeruginosa GN 383 (Pseudomonas aeruginosa; Table 5-3, clinical isolate) | MIC Pseudomonas neruginosa S-1 (Pseudomonas aeruginosa) | MIC Pseudomonas neruginosa S-2 (Pseudomonas aeruginosa) | MIC Pseudomonas neruginosa S-3 (Pseudomonas aeruginosa) | MIC Pseudomonas neruginosa S-4 (Pseudomonas aeruginosa)
